Source: ChEMBL document CHEMBL3507680, “University of Dundee, Gates Library screen for HepG2 cell viability”

Test: Human HepG2 cell viability assay in 384 well format
Type: toxicity, cell-based
Design: dose 125 nL, time 70.5 hour; cytotoxicity at 70.5 h: concentration not given beside the values
Details: HepG2 cells, read-out: Inhibition

In order of falling cytotoxicity at 70.5 h:
1. O=C(CN1CCC(c2cccc(F)c2)C1)NCc1ccco1 (centres undefined)  59.3%
2. CC(C)CCC(=O)N(C)CC(=O)Nc1ccc(Br)cn1  43.7%
3. Cn1cc(CN2CCCN(C(=O)c3cc(Cl)cn3C)CC2)cn1  38.5%
4. CCC1CCCN(C(=O)Cc2csc(-c3ncccn3)n2)C1 (centres undefined)  36.3%
5. Cc1cccc2c1OCCC2NCc1c(C)nn(C)c1N(C)C (centres undefined)  35%
6. Cc1ccc(NC2CCN(C(=O)c3ccc(Cl)o3)CC2)nn1  34.4%
7. Cc1cc(CC(=O)NCc2ccnc(OCC(F)(F)F)c2)no1  34%
8. CN(CC1COc2ccccc2O1)C(=O)NCCCn1ccnc1 (centres undefined)  33.9%
9. CCc1noc(C(C)N2CCN(Cc3nc(C)c(C)o3)CC2)n1 (centres undefined)  23.9%
10. Cc1noc2ncc(C(=O)NCC3CCOC3)cc12 (centres undefined)  22%
11. CCc1ncc2c(n1)CN(C(C)C(=O)Nc1ccc(Cl)cn1)CC2 (centres undefined)  20.7%
12. CCc1nc(CC(=O)N2CCCCC2Cn2cccn2)cs1 (centres undefined)  19%
13. Cc1cnn(CC2CCCCN2CCCS(=O)(=O)N(C)C)c1 (centres undefined)  18.7%
14. COc1ncccc1CNC(=O)c1ccco1  18%
15. CC(C)=CCN1CCOC(Cn2nc(C)cc2C)C1 (centres undefined)  15.4%
16. Cc1cnc(CN(C)C2CCN(Cc3nc4ccccc4o3)C2)o1 (centres undefined)  15.3%
17. CCc1ncc2c(n1)CN(CC(=O)Nc1cccnc1)CC2  10.9%
18. O=C(CCc1cscn1)N1CCCC(n2cncn2)C1 (centres undefined)  10.8%
19. CCN1CCN(C(=O)NCc2cccnc2-n2cccn2)CC1  10.5%
20. CCN(CC)C(=O)Cn1ccc2cc(NC(=O)C3CC3)ccc21  7.86%
21. O=C(CCc1cnn(-c2ccccc2)c1)N1CCCC(n2cccn2)C1 (centres undefined)  6.67%
22. Cc1cccc(OCCC(=O)NCC(C)(C)C(N)=O)c1  5.99%
23. O=C(Nc1ccccn1)N(CCO)Cc1ccsc1  4.99%
24. CN(C(=O)NCCCN1CCCC1)C1CCN(c2ccccc2)C1=O (centres undefined)  4.81%
25. COc1cccc(COCC(=O)N2CCN(CC(C)(C)O)CC2)c1  4.32%
26. c1cnn(CC2CCCCN2Cc2nc(-c3ccoc3)no2)c1 (centres undefined)  3.95%
27. Cc1ncc(CNC(=O)N(C)C2CCN(c3ccccc3)C2=O)s1 (centres undefined)  3.88%
28. Cc1cc(CNC(=O)CN2CCCC(Cn3cncn3)C2)ccc1F (centres undefined)  3.75%
29. COc1cccc(COCC(=O)N2CCCC(N3CCCC3)CC2)c1 (centres undefined)  3.21%
30. Cc1cnn(CC2CN(CC(=O)N(C)Cc3ccccc3)CCO2)c1 (centres undefined)  2.55%
31. CC(O)CN1CCC(CNCc2ccccc2OC(F)(F)F)CC1 (centres undefined)  2.51%
32. Cc1cc(C)n(CC2CCCCN2C(=O)c2ccc3c(c2)COC3)n1 (centres undefined)  2.1%
33. Cc1n[nH]c(C)c1NC(=O)CN1CCCC(CNC(=O)C(C)(C)C)C1 (centres undefined)  2.09%
34. OC(COCc1ccco1)CN1CCc2c(ncn2C2CC2)C1 (centres undefined)  1.85%
35. c1cncc(-c2noc(CN3CCCCC3Cn3cccn3)n2)c1 (centres undefined)  1.66%
36. O=C(Nc1cn[nH]c1)c1ccc(O)nc1  1.6%
37. O=C(Nc1nccs1)N(CCO)Cc1ccsc1  1.52%
38. Cc1cc(CN(C)C(=O)c2ccc(OCC(F)(F)F)nc2)no1  0.93%
39. CC(C(=O)N1CCCN(Cc2ccc(C#N)cc2)CC1)n1ccnc1 (centres undefined)  0.793%
40. CC(C)CC(=O)N(C)CC(=O)Nc1ccc(Br)cn1  0.489%
41. Cc1ccccc1-c1cc(C(=O)N2CCn3c(C)nnc3C2)[nH]n1  0.102%
42. CN1CCCC1CNC(=O)CCCOc1ccc(F)cc1 (centres undefined)  0.0711%
43. CCc1nc(C2CCCN2C(=O)c2csc(COC)n2)no1 (centres undefined)  -0.0198%
44. Cc1cc(C)n(-c2ccc(CNCc3ccc(OC(C)C)cc3)cn2)n1  -0.102%
45. Cc1nc(C2CCCN2CCCNS(C)(=O)=O)no1 (centres undefined)  -0.166%
46. CC(Cn1ccnc1)NC(=O)NCCc1ccccn1 (centres undefined)  -0.19%
47. Cc1nc(C(=O)N2CCCC2c2noc(C3CC3)n2)c[nH]1 (centres undefined)  -0.671%
48. Cc1noc(C)c1C(=O)NCc1ccnc(OCC(F)(F)F)c1  -0.701%
49. Cc1cnn(CC2CCCCN2CCS(C)(=O)=O)c1 (centres undefined)  -1.02%
50. CC(C)(CNC(=O)NCCOc1cccc(F)c1)C(N)=O  -1.08%
51. Cc1nc(C)c(CC(=O)Nc2ncc(C)s2)c(=O)[nH]1  -1.19%
52. CCC(CC)C(=O)N(C)CC(=O)Nc1ccc(Br)cn1  -1.35%
53. Cc1cc(CN(C)C(=O)c2ccc(F)c(C(F)(F)F)c2)no1  -1.4%
54. COc1ncccc1CNC(=O)NCc1ccco1  -1.48%
55. COc1ccc(C(=O)N2CCCS2(=O)=O)cc1OC  -1.63%
56. COc1cccc(CNC(=O)CN2CCCC(Cn3cncn3)C2)c1 (centres undefined)  -1.72%
57. Cc1cccc(-c2noc(CN3CCCC3Cn3cncn3)n2)c1 (centres undefined)  -1.92%
58. Cc1nc(CN(C)C2CCN(Cc3nc4ccccc4n3C)C2)no1 (centres undefined)  -2.1%
59. CCNc1cc2c(nn1)CCN(C(=O)c1cc3cccc(C)c3o1)C2  -2.31%
60. CCOCC(O)CN1CCN(C(=O)c2ccccc2Cl)CC1 (centres undefined)  -2.72%
61. CC(C)C(=O)N(C)CC(=O)Nc1ccc(Br)cn1  -2.8%
62. Cc1ccc(CNC(=O)CN2CCCC(Cn3cncn3)C2)cc1 (centres undefined)  -2.99%
63. c1cncc(-c2noc(CN3CCCC3Cn3cccn3)n2)c1 (centres undefined)  -3.02%
64. Cc1cnc(CN(C)C2CCN(Cc3nccn3C)C2)o1 (centres undefined)  -3.1%
65. Cc1cc(CN(C)C(=O)NC2CCCN(c3ncccn3)C2)no1 (centres undefined)  -3.61%
66. CSC(C)C(=O)N(C)CC(=O)Nc1ccc(Br)cn1 (centres undefined)  -3.72%
67. Cc1ccccc1CCNC(=O)CN1CCCC(Cn2cncn2)C1 (centres undefined)  -3.82%
68. CCNc1cc2c(nn1)CCN(C(=O)c1cc(C)no1)C2  -3.88%
69. CN(Cc1ccc(N2CCOCC2)cc1)C(=O)Cn1cccnc1=O  -3.91%
70. Cc1noc(C(C)N2CCN(Cc3nnc(C4CC4)o3)CC2)n1 (centres undefined)  -3.98%
71. Fc1ccc(OCc2noc(CN3CCc4cncnc4C3)n2)cc1  -4.28%
72. CC(Cn1cccn1)NCC(=O)NCCc1cccs1 (centres undefined)  -4.39%
73. Cc1nn(-c2ccccc2)cc1C(=O)N1CCCC(n2ccnc2C)C1 (centres undefined)  -4.52%
74. O=C(NCCCn1cncn1)N1CCCC(N2CCCC2)C1 (centres undefined)  -4.6%
75. Cc1cccc(-c2nc(CN3CCCCC3Cn3cncn3)no2)c1 (centres undefined)  -4.62%
76. O=C(CN1CCCC(Cn2cncn2)C1)NCc1ccccc1F (centres undefined)  -4.63%
77. CN(CC1COc2ccccc2O1)C(=O)NCCCn1cncn1 (centres undefined)  -4.69%
78. Cc1csc(N2CCCN(C(=O)c3ccoc3C)CC2)n1  -4.74%
79. Cc1ccc(OCC(O)CN2CCc3c(ncn3C3CC3)C2)cc1 (centres undefined)  -4.79%
80. COc1cccc(OCCNCc2c(C)nn(C)c2N(C)C)c1  -4.8%
81. COC(=O)CN(C)C1CCc2ccccc21 (centres undefined)  -4.82%
82. CC(=O)NCCNC(=O)CN1CCCC(Cn2cncn2)C1 (centres undefined)  -4.84%
83. CC(Cn1cccn1)NC(=O)NCc1cccnc1OC(C)C (centres undefined)  -4.84%
84. CC(C)c1cnc(CN(C)C2CCN(CCc3cnn(C)c3)C2)o1 (centres undefined)  -5.18%
85. CN(C(=O)Cc1cccs1)C1CCN(c2ccccn2)CC1  -5.49%
86. Cc1cnn(C2CCCN(C(=O)c3cn(-c4ccccc4)nc3C)C2)c1 (centres undefined)  -6.2%
87. Cc1noc(C)c1C(=O)NCc1ccc(N2CCCCCC2)nc1  -6.77%
88. CCc1noc(C(C)N2CCC(N3CCCCC3)CC2)n1 (centres undefined)  -6.88%
89. COCCN1CC(C(=O)NCc2ccnc(-n3cccn3)c2)CC1=O (centres undefined)  -6.88%
90. CN(CC(=O)Nc1ccc(Br)cn1)C(=O)C(C)(C)C  -6.91%
91. Cc1nc(C)n(CC2CCCN(CC(=O)Nc3c(C)n[nH]c3C)C2)n1 (centres undefined)  -7.16%
92. Cn1nccc1CNC(=O)Nc1cc(C(F)(F)F)c[nH]c1=O  -7.39%
93. OC(CNCCn1cccn1)c1cccc(F)c1 (centres undefined)  -7.66%
94. CCc1ncc(C(=O)N2CCC(Nc3ccc(C)nn3)CC2)s1  -8.02%
95. CNc1cc(N2CCCC2CNCc2cnc(C)cn2)ncn1 (centres undefined)  -8.09%
96. COc1cc(S(=O)(=O)N2CCc3ccc(Cl)cc32)cc(C(=O)O)c1OC  -8.43%
97. Cc1noc(C)c1C(=O)NCc1ccc(N2CCOCC2)nc1  -8.43%
98. Cc1ccc(-c2nnc(CN3CCn4c(nnc4C4CC4)C3)o2)cc1  -8.76%
99. CCN1CCN(c2ccc(CNC(=O)c3sccc3C)cn2)CC1  -9.08%
100. Cc1nn(C)cc1C(=O)N1CCCC(n2cncn2)C1 (centres undefined)  -9.27%
101. O=C(Cc1ccccc1)NCCNC(=O)c1scnc1Cl  -9.54%
102. CC(C)(C)c1n[nH]c(C2CN(C(=O)CCC3CC3)CCO2)n1 (centres undefined)  -9.78%
103. CCc1nc(C2CCCN2C(=O)c2ccoc2C)no1 (centres undefined)  -9.91%
104. c1cnnc(N2CCCC2CNCc2ccsc2)c1 (centres undefined)  -10.1%
105. CC(C)Cc1noc(CN2CCN(CCOc3ccc(Cl)cc3)CC2)n1  -10.1%
106. CCN1CCN(c2ccc(CNC(=O)Cc3c(C)noc3C)cn2)CC1  -10.4%
107. CCn1ccnc1CN1CCN(CC(O)Cn2cccn2)CC1 (centres undefined)  -10.4%
108. Cc1cccc2nc(CN3CCCC3Cn3cccn3)cn12 (centres undefined)  -10.8%
109. CC(C)c1ncc2c(n1)CN(CC(=O)Nc1ccc(Cl)cn1)CC2  -10.8%
110. CCn1ccnc1CNCC1CCN(CC(O)c2ccccc2)CC1 (centres undefined)  -11%
111. Cc1ccc(C)c(OC2CCN(C(=O)c3ccc(C)[nH]c3=O)CC2)c1  -11%
112. O=C(COc1ccccc1)NCCNC(=O)c1scnc1Cl  -11.8%
113. CC(C)c1nc(C2CCCN2CC(=O)Nc2cccnc2)no1 (centres undefined)  -14%
114. Cc1nc(C)n(CC2CCCN2Cc2cn3ccccc3n2)n1 (centres undefined)  -14.7%
115. Cc1nc(CN2CCCN(Cc3nccn3C(C)C)CC2)no1  -15.2%
116. CCc1nc(C2CCCN2Cc2cc(=O)n(C)c(=O)n2C)no1 (centres undefined)  -16.4%
117. Cc1cccc2nc(CN3CCCC3Cn3cncn3)cn12 (centres undefined)  -17%
118. c1cnnc(N2CCCC2CNCc2nc(-c3ccsc3)no2)c1 (centres undefined)  -20.3%
119. Cc1cc(C)n(CC2CCCN2CCS(=O)(=O)c2ccccc2)n1 (centres undefined)  -24.2%
